Bounds are passed on as bounds.

We go through two compounds from article PMC12365235, “Molecular mechanisms of thiazide-like diuretics-mediated inhibition of the human Na-Cl cotransporter” (Nature Communications, 2025).

One data set deals with T1, hNCC(N227A) (Homo sapiens, UniProt P55017, N227A).
T1 construct: expressed in transfected cells
T1 sequence (P55017 1-1021 N227A): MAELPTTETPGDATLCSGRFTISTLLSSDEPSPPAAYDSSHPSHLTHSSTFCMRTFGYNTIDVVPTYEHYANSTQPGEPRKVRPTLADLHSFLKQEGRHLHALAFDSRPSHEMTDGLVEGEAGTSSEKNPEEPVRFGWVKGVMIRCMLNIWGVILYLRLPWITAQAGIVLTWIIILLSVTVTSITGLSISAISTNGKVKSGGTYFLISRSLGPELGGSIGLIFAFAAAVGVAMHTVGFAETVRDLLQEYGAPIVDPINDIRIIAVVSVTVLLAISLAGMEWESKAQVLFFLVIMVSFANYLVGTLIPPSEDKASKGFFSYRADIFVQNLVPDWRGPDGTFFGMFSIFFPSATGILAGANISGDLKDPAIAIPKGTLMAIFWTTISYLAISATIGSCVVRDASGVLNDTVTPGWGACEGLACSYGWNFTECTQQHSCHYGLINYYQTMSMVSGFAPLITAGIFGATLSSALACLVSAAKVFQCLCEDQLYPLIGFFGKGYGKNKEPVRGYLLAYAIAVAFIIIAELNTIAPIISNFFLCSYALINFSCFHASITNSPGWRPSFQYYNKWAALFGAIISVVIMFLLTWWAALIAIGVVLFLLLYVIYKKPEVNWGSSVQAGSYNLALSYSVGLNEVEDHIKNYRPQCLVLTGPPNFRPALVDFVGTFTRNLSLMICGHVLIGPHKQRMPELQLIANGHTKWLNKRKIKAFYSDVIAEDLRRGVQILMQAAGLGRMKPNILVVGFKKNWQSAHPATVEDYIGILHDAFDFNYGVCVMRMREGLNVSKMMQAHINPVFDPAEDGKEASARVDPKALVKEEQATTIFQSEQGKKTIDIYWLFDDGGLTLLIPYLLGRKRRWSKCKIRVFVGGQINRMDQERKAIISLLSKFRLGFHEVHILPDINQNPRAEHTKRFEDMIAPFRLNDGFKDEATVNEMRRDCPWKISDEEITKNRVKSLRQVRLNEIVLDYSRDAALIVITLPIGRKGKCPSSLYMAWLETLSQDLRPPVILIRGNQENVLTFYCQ
The data set is described as follows: 125I- uptake assay, hNCC(N227A) variant. The format is cell-based. Particulars: for increase in IC50 relative to hNCC(WT) / IC50: N227A substitution; for IC50: iodide uptake. Here is the method: HEK293S cell lines, cultured in 293 Freestyle medium (Life Technologies; plus 10% fetal bovine serum), stably expressing hNCC and its variants were generated following published protocols. Cells were transfected using Lipofectamine 3000 (Invitrogen) with a pSBbi-RP-based plasmid containing hNCC or its variants and the SB100X vector. Puromycin (2 μg/mL; Gemini Bio-Products) was used for selection of stable cell lines.
To prepare for the uptake experiment, cells were plated at 0.5 × 10^6 cells/well in 24-well plates one day in advance. To activate NCC, cells were treated with a chloride-free hypotonic solution composed of 67.5 mM sodium-, 2.5 mM potassium-, 0.25 mM magnesium-, and 0.25 mM calcium-gluconate, as well as 7.5 mM HEPES pH 7.4 (buffered using Tris) at 37 °C for 10 min[72]. After the activation step, the experiments were carried out at room temperature. Ten minutes before the start of ^125I^− uptake, 70 μM Bumetanide (Thermo Scientific Chemicals) and 100 μM 4,4′-diisothiocyanatostilbene-2,2′-disulfonic acid (DIDS; Sigma) were added to suppress background iodide uptake activity. Indicated thiazide diuretics were also added to the indicated concentrations 10 min before the start of ^125I^− uptake. The original buffer was switched to an uptake buffer composed of 135 mM Na-gluconate, 5 mM K-gluconate, 1 mM Mg-gluconate, 1 mM Ca-gluconate, 70 μM bumetanide, 100 μM DIDS, 1 mM NaI, 0.25 μCi/ml Na^125I (American Radiolabeled Chemicals, Inc.), and 15 mM HEPES pH 7.4 (buffered using Tris), in the presence or absence of thiazide diuretics to initiate ^125I^− uptake. The ^125I^− uptake process lasted 1 h and was stopped by two rapid washes using ice-cold 110 mM MgCl2. Cells lysed using 1% sodium dodecyl sulfate (SDS) were analyzed by scintillation counting.
To calculate the fold change of the half-maximal inhibitory concentration (IC50) between hNCC(WT) and different hNCC variants, individual dose-response curves were normalized first using the smallest mean and the value of the lowest concentration as 0% and 100%, respectively. The normalized data were then fitted using the “EC50 shift” nonlinear regression in GraphPad Prism 10 with the shared EC50Control assigned to be the IC50 of hNCC(WT). The following constraints were used in the EC50 shift analysis. The EC50Control was set to be shared across all curves under analysis and constrained to be greater than 0. The EC50Ratio was constrained to be greater than 0. The bottom, top, and HillSlope were constrained to be 0, 100, and −1, respectively. For Fig. 1f, g and Supplementary Fig. 2d, GraphPad Prism 10 was used to perform curve fitting and IC50 calculation for normalized data using y = 100/(1 + (x/IC50)).

Details of data set [1]: method as in PMID 354839. Particulars: chlorthalidone dose 2- to 4-fold over the currently recommended level; cited from earlier work.

On to `NS(=O)(=O)c1cc(C2(O)NC(=O)c3ccccc32)ccc1Cl` (stereo not drawn) [chlorthalidone], for which, at hNCC(N227A), the “increase in IC50 relative to hNCC(WT)” value is greater than 1000 fold and the IC50 was determined as 59 µM. Moreover, the “serum glucose and uric acid” value in data set [1] is “elevated levels of serum glucose and uric acid”.
As to `CC1Cc2ccccc2N1NC(=O)c1ccc(Cl)c(S(N)(=O)=O)c1` (stereo not drawn) [indapamide], on hNCC(N227A), the “increase in IC50 relative to hNCC(WT)” value is given as “over 10,000 fold” and half-maximal inhibition (IC50) was put at 620 µM. In addition, the “effect of N227A substitution on potency relative to its effect on polythiazide” value at hNCC(N227A) (N227A, polythiazide sensitivities from ref 36) is on record as “over 50 fold”.
